Assay results as given in ChEMBL document CHEMBL1201862, “PubChem BioAssay data set” (2004).
The source made the active and inactive calls.

Assays:
[1] = inhibitors of firefly luciferase expression or activity, dose response, H4 neuroglioma cells, luminescence (AID 1990); format: functional, cell-based
[2] = Luminescence Cell-Based Dose Response HTS to Identify Inhibitors of 5'UTR Stem-Loop Driven Prion Protein mRNA Translation in H4 Neuroglioblastoma Cells. [Related pubchem assays: 1827 (Project Summary), 1813 (Primary HTS)]; format: functional
[3] = inhibitors of SNCA 5'UTR-driven reporter translation, confirmation, H4 neuroglioma cells, luminescence (AID 1988); format: functional, cell-based
[4] = test system: Streptococcus sp. 'group A'; assay: growth inhibition of control SK(-) GAS strain, dose response, counter-screen for streptokinase expression inhibitor project, luminescence, kanamycin, BacTiterGlo, confirmation (AID 1900); format: functional, organism-based
Streptococcus = assay: Group A Streptococcus viability loss, dose response, counter-screen for streptokinase expression inhibitor project, luminescence, BacTiterGlo (AID 1915); format: functional, organism-based;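 further: potency for reduction of bacterial viability or growth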
[5] = target: T1, Short transient receptor potential channel 4 (Mus musculus, UniProt Q9QUQ5); assay: mouse TRPC4 channel activators, dose response, cell-based, HEK293 TRPC4/mu-opioid, Fluo-4 calcium (AID 434937); format: functional
T1 sequence (Q9QUQ5 whole entry): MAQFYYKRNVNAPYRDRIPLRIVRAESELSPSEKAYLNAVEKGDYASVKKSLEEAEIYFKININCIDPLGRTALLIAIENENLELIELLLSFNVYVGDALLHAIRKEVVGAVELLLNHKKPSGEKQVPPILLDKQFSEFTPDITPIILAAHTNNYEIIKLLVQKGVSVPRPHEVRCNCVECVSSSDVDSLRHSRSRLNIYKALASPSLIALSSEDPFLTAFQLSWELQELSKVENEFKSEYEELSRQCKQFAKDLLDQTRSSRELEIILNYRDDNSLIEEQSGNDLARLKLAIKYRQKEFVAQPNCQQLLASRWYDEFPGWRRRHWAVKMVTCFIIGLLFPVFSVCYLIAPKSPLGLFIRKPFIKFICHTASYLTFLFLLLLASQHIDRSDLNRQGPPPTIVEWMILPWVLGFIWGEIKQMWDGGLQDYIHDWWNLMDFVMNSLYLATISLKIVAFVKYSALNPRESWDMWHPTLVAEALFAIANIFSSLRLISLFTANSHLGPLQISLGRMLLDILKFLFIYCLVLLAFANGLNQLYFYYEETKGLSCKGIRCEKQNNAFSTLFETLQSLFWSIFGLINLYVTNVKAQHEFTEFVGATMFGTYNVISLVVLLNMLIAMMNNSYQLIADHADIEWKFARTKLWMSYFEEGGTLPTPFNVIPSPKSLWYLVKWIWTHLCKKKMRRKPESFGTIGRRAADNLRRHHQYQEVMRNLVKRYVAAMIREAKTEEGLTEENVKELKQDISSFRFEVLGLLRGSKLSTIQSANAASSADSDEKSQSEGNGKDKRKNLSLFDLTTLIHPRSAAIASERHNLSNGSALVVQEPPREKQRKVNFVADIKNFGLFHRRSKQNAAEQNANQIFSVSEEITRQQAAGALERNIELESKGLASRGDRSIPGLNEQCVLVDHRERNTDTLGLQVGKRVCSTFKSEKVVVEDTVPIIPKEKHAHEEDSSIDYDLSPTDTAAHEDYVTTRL

[6] = P. falciparum 3D7-ScDHODH growth inhibitors, dose response, SYBR Green, dry powder samples (AID 1159570); format: functional, cell-based;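 further: parasite growth measured after 72 hours of compound exposure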
[7] = P. falciparum Dd2 growth inhibitors, dose response, SYBR Green, cherry-picked samples (AID 1159567); format: functional, cell-based
[8] = P. falciparum Dd2 growth inhibitors, dose response, SYBR Green, dry powder samples (AID 1159566); format: functional, cell-based;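 further: potency for growth inhibition with lower SYBR green DNA signal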
[9] = P. falciparum ATP4 D1247Y mutant growth inhibitors, dose response, NITD609-resistant line, SYBR Green, dry powder (AID 1159571); format: functional, cell-based;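 further: parasites synchronized at ring stage by sorbitol before testing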
[10] = Luminescence Cell-Based Dose Retest to Confirm Inhibitors of Cancer Stem Cells. [Related pubchem assays (depositor defined):AID2717, AID2721]; format: functional; conditions: Homo sapiens
Vero = Vero cell cytotoxicity, cytotoxicity control for flavivirus capping enzyme inhibitors (AID 588742); format: functional; conditions: Chlorocebus sabaeus
Genome polyprotein = Genome polyprotein (dengue virus type 2, UniProt P29990); assay: Dengue-2 NS5 methyltransferase inhibitors, primary screen, biochemical, confirmation dose response (AID 588689); format: functional
Sequence of Genome polyprotein (P29990 2492-3391 limits assumed): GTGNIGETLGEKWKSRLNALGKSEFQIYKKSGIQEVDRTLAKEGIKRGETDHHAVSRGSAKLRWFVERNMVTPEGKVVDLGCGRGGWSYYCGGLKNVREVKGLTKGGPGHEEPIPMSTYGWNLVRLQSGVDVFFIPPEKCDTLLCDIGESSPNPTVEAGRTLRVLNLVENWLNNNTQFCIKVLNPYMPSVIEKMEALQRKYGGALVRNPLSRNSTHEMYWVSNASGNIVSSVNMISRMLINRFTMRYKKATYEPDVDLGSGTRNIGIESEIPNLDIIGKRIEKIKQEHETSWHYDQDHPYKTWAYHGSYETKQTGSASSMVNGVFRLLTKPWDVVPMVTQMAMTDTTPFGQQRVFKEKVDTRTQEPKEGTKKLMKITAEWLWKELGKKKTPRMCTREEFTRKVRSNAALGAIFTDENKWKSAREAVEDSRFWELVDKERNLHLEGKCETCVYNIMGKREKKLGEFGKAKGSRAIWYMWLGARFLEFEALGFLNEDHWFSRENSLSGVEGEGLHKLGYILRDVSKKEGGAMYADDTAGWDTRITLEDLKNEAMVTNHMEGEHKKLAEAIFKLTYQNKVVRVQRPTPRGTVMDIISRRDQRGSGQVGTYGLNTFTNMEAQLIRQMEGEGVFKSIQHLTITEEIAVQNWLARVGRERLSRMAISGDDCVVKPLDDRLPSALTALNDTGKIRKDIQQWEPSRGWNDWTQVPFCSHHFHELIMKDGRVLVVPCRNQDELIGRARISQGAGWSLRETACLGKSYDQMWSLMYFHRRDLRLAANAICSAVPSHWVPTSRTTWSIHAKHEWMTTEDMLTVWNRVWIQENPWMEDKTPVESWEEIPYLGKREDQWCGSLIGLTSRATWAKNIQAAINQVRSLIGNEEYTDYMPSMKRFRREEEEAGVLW

[11] = target: T2, DNA repair protein RAD52 homolog (Homo sapiens, UniProt P43351); format: functional, biochemical
T2 sequence (P43351 whole entry): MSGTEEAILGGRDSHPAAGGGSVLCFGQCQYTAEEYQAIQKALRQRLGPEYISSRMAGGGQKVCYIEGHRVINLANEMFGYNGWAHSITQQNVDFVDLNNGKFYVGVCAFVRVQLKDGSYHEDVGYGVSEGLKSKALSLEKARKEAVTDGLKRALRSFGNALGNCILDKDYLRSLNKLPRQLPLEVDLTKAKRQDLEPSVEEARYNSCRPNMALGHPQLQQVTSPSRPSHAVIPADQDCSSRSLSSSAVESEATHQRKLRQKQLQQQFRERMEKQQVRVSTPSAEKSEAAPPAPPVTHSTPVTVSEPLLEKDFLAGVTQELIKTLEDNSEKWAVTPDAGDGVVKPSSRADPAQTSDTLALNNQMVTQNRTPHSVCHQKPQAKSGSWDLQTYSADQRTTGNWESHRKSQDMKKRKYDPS

[12] = HeLa cell cytotoxicity, dose response, cytotoxicity control for MgcRacGAP inhibitor project (AID 624300); format: functional
[13] = target: T3, Rac GTPase-activating protein 1 (Homo sapiens, UniProt Q9H0H5); assay: MgcRacGAP GTPase-activating activity inhibitors, confirmation, biochemical, ADP Hunter fluorescence, primary and confirmatory (AID 624330); format: functional
T3 sequence (Q9H0H5 whole entry): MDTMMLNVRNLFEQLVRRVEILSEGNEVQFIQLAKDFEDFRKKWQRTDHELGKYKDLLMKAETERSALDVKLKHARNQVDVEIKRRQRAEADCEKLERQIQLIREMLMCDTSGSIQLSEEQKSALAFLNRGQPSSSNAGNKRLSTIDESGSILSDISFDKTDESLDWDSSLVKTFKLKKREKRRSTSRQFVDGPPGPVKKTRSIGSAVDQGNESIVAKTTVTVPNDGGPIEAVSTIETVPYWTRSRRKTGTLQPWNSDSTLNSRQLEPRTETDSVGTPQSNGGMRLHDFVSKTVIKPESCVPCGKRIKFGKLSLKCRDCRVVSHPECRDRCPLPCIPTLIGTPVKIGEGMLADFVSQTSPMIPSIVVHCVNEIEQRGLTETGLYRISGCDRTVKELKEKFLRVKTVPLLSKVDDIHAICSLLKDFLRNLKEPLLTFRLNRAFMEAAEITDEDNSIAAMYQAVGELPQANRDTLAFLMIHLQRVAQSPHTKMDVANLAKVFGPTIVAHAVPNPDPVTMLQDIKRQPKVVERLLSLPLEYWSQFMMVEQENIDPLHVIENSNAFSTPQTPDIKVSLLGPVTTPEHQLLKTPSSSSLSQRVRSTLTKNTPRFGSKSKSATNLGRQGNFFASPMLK

[14] = target: Glyceraldehyde-3-phosphate dehydrogenase (Homo sapiens, UniProt P04406)
Sequence of Glyceraldehyde-3-phosphate dehydrogenase (P04406 whole entry): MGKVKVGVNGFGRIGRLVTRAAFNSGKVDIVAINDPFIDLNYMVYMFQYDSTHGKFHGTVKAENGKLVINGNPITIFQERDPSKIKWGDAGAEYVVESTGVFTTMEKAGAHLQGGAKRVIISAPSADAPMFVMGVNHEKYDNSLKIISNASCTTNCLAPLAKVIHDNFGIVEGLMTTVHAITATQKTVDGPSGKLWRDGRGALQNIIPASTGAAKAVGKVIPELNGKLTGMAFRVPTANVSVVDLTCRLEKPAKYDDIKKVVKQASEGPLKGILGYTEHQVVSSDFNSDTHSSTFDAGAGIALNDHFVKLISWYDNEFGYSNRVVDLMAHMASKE

[15] = target: T4, Replicative DNA helicase DnaB (Mycobacterium tuberculosis, UniProt P9WMR3); assay: DnaB intein splicing inhibitors, dose response, biochemical, cell-free fluorescence (AID 449749); format: functional
T4 sequence (P9WMR3 whole entry): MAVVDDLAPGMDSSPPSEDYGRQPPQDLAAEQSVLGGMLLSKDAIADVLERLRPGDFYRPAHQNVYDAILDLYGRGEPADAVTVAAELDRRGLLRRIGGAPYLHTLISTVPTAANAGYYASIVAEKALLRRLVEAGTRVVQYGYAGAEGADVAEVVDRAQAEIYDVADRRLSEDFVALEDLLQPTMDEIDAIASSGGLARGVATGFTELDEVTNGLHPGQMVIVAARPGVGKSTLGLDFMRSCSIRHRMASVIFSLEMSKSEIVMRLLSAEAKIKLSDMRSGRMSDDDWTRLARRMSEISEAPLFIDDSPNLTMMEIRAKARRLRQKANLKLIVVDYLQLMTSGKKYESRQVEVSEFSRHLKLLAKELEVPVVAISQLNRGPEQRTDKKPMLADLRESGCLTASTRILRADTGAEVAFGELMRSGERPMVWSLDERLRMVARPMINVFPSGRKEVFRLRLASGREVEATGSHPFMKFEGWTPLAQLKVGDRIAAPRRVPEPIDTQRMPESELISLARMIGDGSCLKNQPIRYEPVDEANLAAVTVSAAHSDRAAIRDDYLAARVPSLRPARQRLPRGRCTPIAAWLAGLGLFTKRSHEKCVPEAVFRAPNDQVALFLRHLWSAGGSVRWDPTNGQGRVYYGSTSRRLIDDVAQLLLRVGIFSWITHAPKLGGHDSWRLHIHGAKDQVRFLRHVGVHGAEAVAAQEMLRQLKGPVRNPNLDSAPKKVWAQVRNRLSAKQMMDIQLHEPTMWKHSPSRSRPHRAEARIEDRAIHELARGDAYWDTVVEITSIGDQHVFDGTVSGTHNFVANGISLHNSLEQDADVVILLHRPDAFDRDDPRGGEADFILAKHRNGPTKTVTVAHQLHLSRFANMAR

Protein RecA = target: T5, Protein RecA (Mycobacterium tuberculosis, UniProt P9WHJ3); assay: Fluorescence Cell-Free Homogeneous Dose Retest to Identify Inhibitors of RecA-Intein Splicing Activity. [Related pubchem assays (depositor defined):AID2097, AID2223, AID489010, AID492950]; format: functional
T5 sequence (P9WHJ3 whole entry): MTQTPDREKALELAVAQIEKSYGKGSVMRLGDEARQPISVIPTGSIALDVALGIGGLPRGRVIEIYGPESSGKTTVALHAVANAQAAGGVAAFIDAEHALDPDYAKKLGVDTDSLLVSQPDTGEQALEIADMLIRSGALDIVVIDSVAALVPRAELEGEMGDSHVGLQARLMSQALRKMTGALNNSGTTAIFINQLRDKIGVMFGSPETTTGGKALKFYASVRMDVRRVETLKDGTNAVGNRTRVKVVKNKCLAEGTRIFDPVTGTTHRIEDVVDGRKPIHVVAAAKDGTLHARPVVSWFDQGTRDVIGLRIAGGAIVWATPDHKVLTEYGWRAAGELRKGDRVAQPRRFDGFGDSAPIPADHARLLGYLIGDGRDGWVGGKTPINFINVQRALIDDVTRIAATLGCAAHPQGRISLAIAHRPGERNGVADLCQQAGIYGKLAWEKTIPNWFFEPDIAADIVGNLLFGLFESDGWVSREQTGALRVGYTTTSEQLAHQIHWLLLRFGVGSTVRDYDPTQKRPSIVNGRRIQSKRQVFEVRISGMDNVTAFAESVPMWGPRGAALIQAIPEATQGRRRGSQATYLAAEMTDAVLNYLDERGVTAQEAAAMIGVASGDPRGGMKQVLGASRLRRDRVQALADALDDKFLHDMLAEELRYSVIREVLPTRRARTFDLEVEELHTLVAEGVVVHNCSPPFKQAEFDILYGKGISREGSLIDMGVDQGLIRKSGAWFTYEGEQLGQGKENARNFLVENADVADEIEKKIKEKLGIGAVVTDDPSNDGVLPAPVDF

[16] = Shn3 3'UTR reporter inhibitors, dose response, cell-based, Clone20 osteoblasts, firefly luciferase, cherry-picked (AID 624132); format: functional;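 further: firefly luciferase luminescence from reporter carrying the Shn3 3'UTR in osteoblasts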
[17] = control 3'UTR Renilla luciferase suppression, dose response, counter-screen for Shn3 inhibitor project, cell-based, Clone20-Shn3RL, cherry-picked (AID 624133); format: functional
Estrogen receptor beta = Estrogen receptor beta (Homo sapiens, UniProt Q92731);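 further: recombinant ER-beta bound to coactivator SRC1 peptide in presence of estradiol agonist; inhibitors block coactivator peptide binding and lower the FRET signal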
Sequence of Estrogen receptor beta (Q92731 whole entry): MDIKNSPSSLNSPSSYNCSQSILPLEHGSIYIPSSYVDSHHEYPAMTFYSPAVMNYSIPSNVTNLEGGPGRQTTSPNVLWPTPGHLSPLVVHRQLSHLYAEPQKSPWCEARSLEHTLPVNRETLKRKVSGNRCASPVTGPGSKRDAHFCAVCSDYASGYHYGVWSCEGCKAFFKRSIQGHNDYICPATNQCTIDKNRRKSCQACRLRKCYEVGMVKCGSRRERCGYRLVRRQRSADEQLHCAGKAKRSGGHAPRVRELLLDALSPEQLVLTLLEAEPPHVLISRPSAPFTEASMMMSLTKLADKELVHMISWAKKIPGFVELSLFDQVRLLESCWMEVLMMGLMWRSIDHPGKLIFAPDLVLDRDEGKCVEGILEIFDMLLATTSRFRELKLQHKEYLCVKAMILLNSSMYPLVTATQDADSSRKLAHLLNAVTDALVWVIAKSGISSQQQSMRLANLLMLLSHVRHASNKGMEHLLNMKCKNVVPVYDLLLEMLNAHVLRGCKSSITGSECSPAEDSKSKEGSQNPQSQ

## O=C(NNC(=O)c1ccc2ncccc2c1)c1ccc(Cl)cc1
[1]
  EC50: > 120 µM (not active)
[2]
  EC50: > 120 µM (not active)
[3]
  EC50: > 120 µM (not active)

## CCCc1ccc(OCC(=O)NNC(=S)NC(=O)c2ccco2)cc1
[4]
  EC50: 0.069 µM (active)
Streptococcus
  EC50: 1.39 µM (active)
[5]
  EC50: 6.68 µM (active)

## C[C@H]1CN([C@@H](C)CO)C(=O)c2cc(NC(=O)Nc3ccc(C(F)(F)F)cc3)ccc2O[C@@H]1CN(C)C(=O)Nc1cccc2ccccc12
[6]
  AC50: 1.42 µM (active)
[7]
  AC50: 2.41 µM (active)
[8]
  AC50: 1.37 µM (active)
[9]
  AC50: 1.56 µM (active)

## Cc1[nH]n(-c2ncc(-c3ccc(Cl)cc3)s2)c(=O)c1C(c1ccc(Cl)cc1)C(C#N)C#N (stereo not given)
[10]
  AC50: 2.97 µM (active)
Vero
  CC50: > 40 µM (active)
Genome polyprotein
  IC50: 23 µM (active)

## CN(C)CCNC(=O)c1ccc(-c2cn3c(-c4ccc(Oc5ccccc5)cc4)cnc3cn2)cc1
[11]
  AC50: 5.06 µM (active)

## Oc1ccc(-c2csc(Nc3ccccn3)n2)c(O)c1
[10]
  AC50: 1.74 µM (active)
[12]
  CC50: 100 µM (active)
[13]
  IC50: 59.5 µM (active)

## Cc1onc(-c2ccccc2Cl)c1C(=O)NCc1ccccn1
[1]
  EC50: > 120 µM (not active)
[2]
  EC50: > 120 µM (not active)
[3]
  EC50: > 120 µM (not active)

## COc1ccc(/C=N/NC(=O)c2cccnc2)cc1COc1ccc([N+](=O)[O-])c(C)c1
[1]
  EC50: > 120 µM (not active)
[2]
  EC50: 28.9 µM (active)
[3]
  EC50: 8.08 µM (active)

## Cc1onc(-c2ccccc2Cl)c1C(=O)Nc1ccc(S(N)(=O)=O)cc1
[14]
  IC50: > 100 µM (not active)

## Cc1cccc(CS(=O)(=O)c2ncc(Cl)c(C(=O)Nc3nnc(C(C)C)s3)n2)c1
[15]
  AC50: 1.2 µM (active)
Vero
  CC50: 25.6 µM (active)
Protein RecA
  EC50: 0.312 µM (active)
Genome polyprotein
  IC50: 94.3 µM (active)
[16]
  AC50: 1.62 µM (active)
[17]
  AC50: 4.36 µM (active)

## COc1ccc(/N=c2\oc3c(OC)cccc3cc2C(=O)NCc2ccco2)c(OC)c1
Vero
  CC50: > 40 µM (active)
Genome polyprotein
  IC50: 40.8 µM (active)

## CCn1c(NN)nc2sc3c(c2c1=O)CCC3
Estrogen receptor beta
  IC50: > 50 µM (not active)

## O=C(NCCCCCCCN1CCCCCCC1)C(C1CCCCC1)C1CCCCC1
[11]
  AC50: 8.88 µM (active)

## CCOc1cccc2sc(N(CCCN(C)C)C(=O)c3ccc(C(=O)c4ccccc4)cc3)nc12
[11]
  AC50: 17.3 µM (active)
